US20240025883A1, “PYRIMIDIN-2-YL SULFONAMIDE DERIVATIVES” (Hoffmann-La Roche Inc., priority 2021, published 2024)

What follows are compounds tested against human GPR17 short isoform (Homo sapiens (Human), UniProt Q13304) (assay: GPR17 cAMP assay (hGPR17 cAMP, antagonist mode against EC80 of MDL29,951)). Details: CHO-K1 cells stably expressing human GPR17 short isoform; EC80 of agonist MDL29,951; forskolin 15 μM.
Type: cell-based
Method: GPR17 cAMP Assay Protocol:
CHO-K1 cells stably expressing vector containing untagged human GPR17 short isoform (Roche) were cultured at 37° C./5% CO2 in DMEM (Dulbecco's Modified Eagle Medium):F-12 (1:1) supplemented with 10% foetal bovine serum and 400 μg/ml Geneticin.
Changes in intracellular cyclic adenosine monophosphate (cAMP) levels were quantified using the Nano-TRF Detection Assay kit (Roche Diagnostics, Cat. No. 05214386001). This assay allows for direct cAMP quantification in a homogeneous solution, cAMP is detected based on time-resolved fluorescence energy transfer (TR-FRET) and competitive binding of ruthenylated cAMP and endogenous cAMP to an anti-cAMP monoclonal antibody labeled with AlexaFluor-700. The Ruthenium complex serves as the FRET donor and transfers energy to AlexaFluor-700. The FRET signal is inversely proportional to the cAMP concentration.
CHO-GPR17S cells were detached with Accutase and resuspended in assay buffer consisting of Hank's Balanced Salt Solution (HBSS), 10 mM HEPES (4-(2-hydroxyethyl) piperazine-1-ethanesulfonic acid solution) and 0.1% bovine serum albumin (pH 7.4). The cells were seeded in black 384-well plates (Corning) at a density of 10,000 cells/20 μl assay buffer until the addition of compounds.
Test antagonist compounds were serially diluted in dimethyl sulfoxide (DMSO) and spotted in 384-well plates. The compounds were then diluted in HBSS buffer supplemented with an EC80 concentration of MDL29,951 (3-(2-Carboxy-4,6-dichloroindol-3-yl)propionic acid) (GPR17 agonist) plus 3-Isobutyl-1-methylxanthine (IBMX) (0.5 mM final concentration) and added to the cells at room temperature. Forskolin (15 μM final concentration) was added 5 minutes after the test compounds and the cells were incubated at room temperature for 30 minutes. The assay was stopped by adding cAMP detection mix (containing detergents for cell lysis) for 90 minutes at room temperature.
Cellular cAMP was measured using a Paradigm reader (Molecular Devices). The raw data was used to calculate the FRET signal based on the assay's P-factor as per cAMP kit instructions. The data was normalized to the maximal activity of a reference antagonist and dose response curves were fitted to the percent activity of the test compounds using a sigmoidal dose response model (Genedata Screener).

Sequence of human GPR17 short isoform (Q13304 29-367): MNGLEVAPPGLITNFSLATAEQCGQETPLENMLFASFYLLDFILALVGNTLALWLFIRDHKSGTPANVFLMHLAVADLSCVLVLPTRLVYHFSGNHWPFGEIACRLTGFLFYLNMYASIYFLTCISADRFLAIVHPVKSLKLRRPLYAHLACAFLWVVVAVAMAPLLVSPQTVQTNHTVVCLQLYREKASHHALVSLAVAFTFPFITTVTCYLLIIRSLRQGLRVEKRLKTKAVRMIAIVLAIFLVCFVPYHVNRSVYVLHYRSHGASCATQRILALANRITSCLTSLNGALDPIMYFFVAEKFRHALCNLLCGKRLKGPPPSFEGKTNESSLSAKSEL

| Structure (SMILES) | IC50 |
| --- | --- |
| COc1nc(NS(=O)(=O)c2c[nH]c3cc(Cl)ccc23)ncc1OCCC(F)F [Example 39, 6-chloro-N-[5-(3,3-difluoropropoxy)-4-methoxy-pyrimidin-2-yl]-1H-indole-3-sulfonamide] | 287 nM |
| COc1nc(NS(=O)(=O)c2c[nH]c3cc(Cl)ccc23)ncc1OCCC(F)(F)F [Example 40, 6-chloro-N-[4-methoxy-5-(3,3,3-trifluoropropoxy)pyrimidin-2-yl]-1H-indole-3-sulfonamide] | 628 nM |
| COc1nc(NS(=O)(=O)c2c[nH]c3cc(Cl)ccc23)ncc1OC(F)(F)CF [Example 41, 6-chloro-N-[4-methoxy-5-(1,1,2-trifluoroethoxy)pyrimidin-2-yl]-1H-indole-3-sulfonamide] | 21 nM |
| COc1nc(NS(=O)(=O)c2c[nH]c3cc(Cl)ccc23)ncc1OC(C)(F)F [Example 42, 6-chloro-N-[5-(1,1-difluoroethoxy)-4-methoxy-pyrimidin-2-yl]-1H-indole-3-sulfonamide] | 194 nM |
| COc1nc(NS(=O)(=O)c2c[nH]c3cc(Cl)ccc23)ncc1OC(F)(F)C(F)F [Example 43, 6-chloro-N-[4-methoxy-5-(1,1,2,2-tetrafluoroethoxy)pyrimidin-2-yl]-1H-indole-3-sulfonamide] | 60 nM |
| COc1nc(NS(=O)(=O)c2c[nH]c3cc(Cl)ccc23)ncc1OC(F)(F)C(F)Cl (centres unmarked) [Example 44, 6-chloro-N-[5-(2-chloro-1,1,2-trifluoro-ethoxy)-4-methoxy-pyrimidin-2-yl]-1H-indole-3-sulfonamide] | 131 nM |
| CCCc1cnc(NS(=O)(=O)c2c[nH]c3cc(Cl)ccc23)nc1OC [Example 45, 6-chloro-N-(4-methoxy-5-propyl-pyrimidin-2-yl)-1H-indole-3-sulfonamide] | 82 nM |
| COc1nc(NS(=O)(=O)c2c[nH]c3cc(Cl)ccc23)ncc1CC1CC1 [Example 46, 6-chloro-N-[5-(cyclopropylmethyl)-4-methoxy-pyrimidin-2-yl]-1H-indole-3-sulfonamide] | 918 nM |
| COc1nc(NS(=O)(=O)c2c[nH]c3cc(Cl)ccc23)ncc1CCC(F)F [Example 48, 6-chloro-N-[5-(3,3-difluoropropyl)-4-methoxy-pyrimidin-2-yl]-1H-indole-3-sulfonamide] | 26 nM |
| COCCc1cnc(NS(=O)(=O)c2c[nH]c3cc(Cl)ccc23)nc1OC [Example 49, 6-chloro-N-[4-methoxy-5-(2-methoxyethyl)pyrimidin-2-yl]-1H-indole-3-sulfonamide] | 809 nM |
| COc1nc(NS(=O)(=O)c2c[nH]c3cc(Cl)ccc23)ncc1C1COC1 [Example 50, 6-chloro-N-[4-methoxy-5-(oxetan-3-yl)pyrimidin-2-yl]-1H-indole-3-sulfonamide] | 2790 nM |
| COc1nc(NS(=O)(=O)c2c[nH]c3cc(Cl)ccc23)nc(OC)c1OCF [Example 51, 6-chloro-N-[5-(fluoromethoxy)-4,6-dimethoxy-pyrimidin-2-yl]-1H-indole-3-sulfonamide] | 94 nM |
| COc1nc(NS(=O)(=O)c2c[nH]c3cc(Cl)ccc23)nc(OC)c1OC(F)F [Example 52, 6-chloro-N-[5-(difluoromethoxy)-4,6-dimethoxy-pyrimidin-2-yl]-1H-indole-3-sulfonamide] | 32 nM |
| COc1nc(NS(=O)(=O)c2c[nH]c3cc(Cl)ccc23)nc(OC)c1OCCF [Example 53, 6-chloro-N-[5-(2-fluoroethoxy)-4,6-dimethoxy-pyrimidin-2-yl]-1H-indole-3-sulfonamide] | 11 nM |
| C=CCc1c(OC)nc(NS(=O)(=O)c2c[nH]c3cc(Cl)ccc23)nc1OC [Example 56, N-(5-allyl-4,6-dimethoxy-pyrimidin-2-yl)-6-chloro-1H-indole-3-sulfonamide] | 13 nM |
| CC#Cc1c(OC)nc(NS(=O)(=O)c2c[nH]c3cc(Cl)ccc23)nc1OC [Example 57, 6-chloro-N-(4,6-dimethoxy-5-prop-1-ynyl-pyrimidin-2-yl)-1H-indole-3-sulfonamide] | 34 nM |
| CCCc1c(OC)nc(NS(=O)(=O)c2c[nH]c3cc(Cl)ccc23)nc1OC [Example 58, 6-chloro-N-(4,6-dimethoxy-5-propyl-pyrimidin-2-yl)-1H-indole-3-sulfonamide] | 17 nM |
| COc1nc(NS(=O)(=O)c2c[nH]c3cc(Cl)ccc23)nc(OC)c1CCF [Example 59, 6-chloro-N-[5-(2-fluoroethyl)-4,6-dimethoxy-pyrimidin-2-yl]-1H-indole-3-sulfonamide] | 13 nM |

| Structure (SMILES) | IC50 |
| --- | --- |
| COc1nc(NS(=O)(=O)c2c[nH]c3cc(Cl)ccc23)nc(OC)c1CC(F)F [Example 60, 6-chloro-N-[5-(2,2-difluoroethyl)-4,6-dimethoxy-pyrimidin-2-yl]-1H-indole-3-sulfonamide] | 8 nM |
| COc1nc(NS(=O)(=O)c2c[nH]c3cc(Cl)ccc23)nc(OC)c1CCCF [Example 61, 6-chloro-N-[5-(3-fluoropropyl)-4,6-dimethoxy-pyrimidin-2-yl]-1H-indole-3-sulfonamide] | 7 nM |
| COc1nc(NS(=O)(=O)c2c[nH]c3cc(Cl)ccc23)nc(OC)c1CCC(F)F [Example 62, 6-chloro-N-[5-(3,3-difluoropropyl)-4,6-dimethoxy-pyrimidin-2-yl]-1H-indole-3-sulfonamide] | 12 nM |
| COc1nc(NS(=O)(=O)c2c[nH]c3cc(Cl)ccc23)nc(OC)c1CC(C)(F)F [Example 63, 6-chloro-N-[5-(2,2-difluoropropyl)-4,6-dimethoxy-pyrimidin-2-yl]-1H-indole-3-sulfonamide] | 182 nM |
| COc1nc(NS(=O)(=O)c2c[nH]c3cc(Cl)ccc23)nc(OC)c1CCC(F)(F)F [Example 64, 6-chloro-N-[4,6-dimethoxy-5-(3,3,3-trifluoropropyl)pyrimidin-2-yl]-1H-indole-3-sulfonamide] | 39 nM |
| COCc1c(OC)nc(NS(=O)(=O)c2c[nH]c3cc(Cl)ccc23)nc1OC [Example 65, 6-chloro-N-[4,6-dimethoxy-5-(methoxymethyl)pyrimidin-2-yl]-1H-indole-3-sulfonamide] | 61 nM |
| COCCc1c(OC)nc(NS(=O)(=O)c2c[nH]c3cc(Cl)ccc23)nc1OC [Example 66, 6-chloro-N-[4,6-dimethoxy-5-(2-methoxyethyl)pyrimidin-2-yl]-1H-indole-3-sulfonamide] | 19 nM |
| COc1nc(NS(=O)(=O)c2c[nH]c3cc(Cl)ccc23)nc(OC)c1CC#N [Example 67, 6-chloro-N-[5-(cyanomethyl)-4,6-dimethoxy-pyrimidin-2-yl]-1H-indole-3-sulfonamide] | 65 nM |
| COc1nc(NS(=O)(=O)c2c[nH]c3cc(Cl)ccc23)nc(OC)c1CCC#N [Example 68, 6-chloro-N-[5-(2-cyanoethyl)-4,6-dimethoxy-pyrimidin-2-yl]-1H-indole-3-sulfonamide] | 9 nM |
| COc1nc(NS(=O)(=O)c2c[nH]c3cc(Cl)ccc23)nc(OC)c1C1CC1 [Example 69, 6-chloro-N-(5-cyclopropyl-4,6-dimethoxy-pyrimidin-2-yl)-1H-indole-3-sulfonamide] | 14 nM |
| COCCOc1nc(NS(=O)(=O)c2c[nH]c3cc(Cl)ccc23)nc(OC)c1Br [Example 70, N-[5-bromo-4-methoxy-6-(2-methoxyethoxy)pyrimidin-2-yl]-6-chloro-1H-indole-3-sulfonamide] | 2740 nM |
| COc1nc(NS(=O)(=O)c2c[nH]c3cc(Cl)ccc23)nc(OC2CC2)c1Br [Example 71, N-[5-bromo-4-(cyclopropoxy)-6-methoxy-pyrimidin-2-yl]-6-chloro-1H-indole-3-sulfonamide] | 11500 nM |
| COc1nc(NS(=O)(=O)c2c[nH]c3cc(Cl)ccc23)nc(OC(F)F)c1C [Example 72, 6-chloro-N-[4-(difluoromethoxy)-6-methoxy-5-methyl-pyrimidin-2-yl]-1H-indole-3-sulfonamide] | 40 nM |
| COc1nc(NS(=O)(=O)c2c[nH]c3cc(Cl)ccc23)nc(F)c1Br [Example 73, N-(5-bromo-4-fluoro-6-methoxy-pyrimidin-2-yl)-6-chloro-1H-indole-3-sulfonamide] | 124 nM |
| COc1nc(NS(=O)(=O)c2c[nH]c3cc(Cl)ccc23)nc(Cl)c1OC [Example 75, 6-chloro-N-(4-chloro-5,6-dimethoxy-pyrimidin-2-yl)-1H-indole-3-sulfonamide] | 946 nM |
| O=S(=O)(Nc1ncc(OCC(F)F)c(Cl)n1)c1c[nH]c2cc(Cl)ccc12 [Example 76, 6-chloro-N-[4-chloro-5-(2,2-difluoroethoxy)pyrimidin-2-yl]-1H-indole-3-sulfonamide] | 916 nM |
| CCc1nc(NS(=O)(=O)c2c[nH]c3cc(Cl)ccc23)nc(OC)c1OCC(F)F [Example 77, 6-chloro-N-[5-(2,2-difluoroethoxy)-4-ethyl-6-methoxy-pyrimidin-2-yl]-1H-indole-3-sulfonamide] | 148 nM |
